{
  "source": "ChEMBL document CHEMBL5724709",
  "about": "“EUbOPEN Chemogenomics Library - IncuCyte” (2024); further: unitless GR value; below 1 slowed growth and below 0 cell loss",
  "format_in_all_cases": "toxicity, cell-based",
  "key": {"HEK-293T": {"test_system": "HEK-293T", "experiment": "Incucyte cell viability with HEK293T", "details": "human, 24 h, 10 µM, compound concentration 10 uM"}, "Fibroblast": {"test_system": "Fibroblast", "experiment": "Incucyte cell viability with human fibroblast", "details": "24 h, 10 µM, compound concentration 10 uM"}, "U2OS": {"test_system": "U2OS", "experiment": "Incucyte cell viability with U2OS", "details": "human, 24 h, 10 µM, compound concentration 10 uM"}},
  "data": [
    {"molecule": "COc1cc(C(C)C)c2c(c1)S(=O)(=O)N(COc1cc(=O)n3cccc(OCCN4CCCCC4)c3n1)C2=O", "values": [
      {"measurement": "Growth Rate", "setting": "HEK-293T; replicate number 1", "result": -0.22},
      {"measurement": "Growth Rate", "setting": "HEK-293T; replicate number 2", "result": -0.01},
      {"measurement": "Growth Rate", "setting": "Fibroblast; replicate number 1", "result": -0.1},
      {"measurement": "Growth Rate", "setting": "Fibroblast; replicate number 2", "result": -0.7},
      {"measurement": "Growth Rate", "setting": "U2OS; replicate number 1", "result": 0.9},
      {"measurement": "Growth Rate", "setting": "U2OS; replicate number 2", "result": 1}
    ]},
    {"molecule": "N[C@@H](CC(=O)N1CCN(C(c2ccc(F)cc2)c2ccc(F)cc2)CC1)C(=O)N1Cc2ccccc2C1", "values": [
      {"measurement": "Growth Rate", "setting": "HEK-293T; replicate number 1", "result": 0.66},
      {"measurement": "Growth Rate", "setting": "HEK-293T; replicate number 2", "result": 0.87},
      {"measurement": "Growth Rate", "setting": "Fibroblast; replicate number 1", "result": 1},
      {"measurement": "Growth Rate", "setting": "U2OS; replicate number 1", "result": 1}
    ]},
    {"molecule": "N#C[C@@H]1CCCN1C(=O)[C@@H]1CCCN1C(=O)CCCc1ccccc1", "values": [
      {"measurement": "Growth Rate", "setting": "HEK-293T; replicate number 1", "result": 0.6},
      {"measurement": "Growth Rate", "setting": "HEK-293T; replicate number 2", "result": 0.93},
      {"measurement": "Growth Rate", "setting": "Fibroblast; replicate number 1", "result": 1},
      {"measurement": "Growth Rate", "setting": "U2OS; replicate number 1", "result": 1},
      {"measurement": "Growth Rate", "setting": "U2OS; replicate number 2", "result": 0.94}
    ]},
    {"molecule": "CC(C)[C@H](NC(=O)OCc1ccccc1)C(=O)NC(CC(=O)O)C(=O)CF", "note": "(stereo partly specified)", "values": [
      {"measurement": "Growth Rate", "setting": "HEK-293T; replicate number 1", "result": 1},
      {"measurement": "Growth Rate", "setting": "HEK-293T; replicate number 2", "result": 0.94},
      {"measurement": "Growth Rate", "setting": "Fibroblast; replicate number 1", "result": 0.54},
      {"measurement": "Growth Rate", "setting": "Fibroblast; replicate number 2", "result": 1},
      {"measurement": "Growth Rate", "setting": "U2OS; replicate number 1", "result": 1},
      {"measurement": "Growth Rate", "setting": "U2OS; replicate number 2", "result": 0.69}
    ]},
    {"molecule": "CC(C)[C@@H]1C(=O)N(S(C)(=O)=O)[C@@H]2CCN(C(=O)/C=C/CN3CCCCC3)[C@H]21.Cl", "values": [
      {"measurement": "Growth Rate", "setting": "HEK-293T; replicate number 1", "result": 0.79},
      {"measurement": "Growth Rate", "setting": "HEK-293T; replicate number 2", "result": 0.98},
      {"measurement": "Growth Rate", "setting": "Fibroblast; replicate number 1", "result": 0.66},
      {"measurement": "Growth Rate", "setting": "Fibroblast; replicate number 2", "result": 1},
      {"measurement": "Growth Rate", "setting": "U2OS; replicate number 1", "result": 1},
      {"measurement": "Growth Rate", "setting": "U2OS; replicate number 2", "result": 0.76}
    ]},
    {"molecule": "CNC(=O)O[C@H]1COc2ccc(N3CCN(C4COC4)CC3)cc2[C@@H]1NC(=O)c1ccc(F)cc1", "values": [
      {"measurement": "Growth Rate", "setting": "HEK-293T; replicate number 1", "result": 0.89},
      {"measurement": "Growth Rate", "setting": "HEK-293T; replicate number 2", "result": 0.97},
      {"measurement": "Growth Rate", "setting": "Fibroblast; replicate number 1", "result": 1},
      {"measurement": "Growth Rate", "setting": "Fibroblast; replicate number 2", "result": 0.67},
      {"measurement": "Growth Rate", "setting": "U2OS; replicate number 1", "result": 1}
    ]},
    {"molecule": "O=C(O)/C(S)=C/c1ccc(I)cc1", "values": [
      {"measurement": "Growth Rate", "setting": "HEK-293T; replicate number 1", "result": 0.71},
      {"measurement": "Growth Rate", "setting": "HEK-293T; replicate number 2", "result": 0.86},
      {"measurement": "Growth Rate", "setting": "Fibroblast; replicate number 1", "result": 1},
      {"measurement": "Growth Rate", "setting": "Fibroblast; replicate number 2", "result": 0.47},
      {"measurement": "Growth Rate", "setting": "U2OS; replicate number 1", "result": 1}
    ]},
    {"molecule": "CC(C)(O)c1ccc(-c2nc3c(F)cc(F)cc3c(=O)[nH]2)cc1", "values": [
      {"measurement": "Growth Rate", "setting": "HEK-293T; replicate number 1", "result": 0.45},
      {"measurement": "Growth Rate", "setting": "HEK-293T; replicate number 2", "result": 1},
      {"measurement": "Growth Rate", "setting": "Fibroblast; replicate number 1", "result": 0.13},
      {"measurement": "Growth Rate", "setting": "Fibroblast; replicate number 2", "result": 0.87},
      {"measurement": "Growth Rate", "setting": "U2OS; replicate number 1", "result": 0.23},
      {"measurement": "Growth Rate", "setting": "U2OS; replicate number 2", "result": 1}
    ]},
    {"molecule": "NC(=O)c1cccc(NC(=O)CCC(=O)NCCc2cn(CCNS(=O)(=O)c3cccc(C(=O)O)c3)nn2)c1", "values": [
      {"measurement": "Growth Rate", "setting": "HEK-293T; replicate number 1", "result": 0.69},
      {"measurement": "Growth Rate", "setting": "HEK-293T; replicate number 2", "result": 0.77},
      {"measurement": "Growth Rate", "setting": "Fibroblast; replicate number 1", "result": 0.46},
      {"measurement": "Growth Rate", "setting": "Fibroblast; replicate number 2", "result": 1},
      {"measurement": "Growth Rate", "setting": "U2OS; replicate number 1", "result": 0.49},
      {"measurement": "Growth Rate", "setting": "U2OS; replicate number 2", "result": 1}
    ]},
    {"molecule": "CNC[C@@H](O)COc1ccc(Cl)c(-c2nc(-c3c(C)noc3C)c(C)c(N3CC4(CCN(C(=O)OC)CC4)C3)n2)c1", "values": [
      {"measurement": "Growth Rate", "setting": "HEK-293T; replicate number 1", "result": 0.46},
      {"measurement": "Growth Rate", "setting": "HEK-293T; replicate number 2", "result": 0.73},
      {"measurement": "Growth Rate", "setting": "Fibroblast; replicate number 1", "result": 0.24},
      {"measurement": "Growth Rate", "setting": "Fibroblast; replicate number 2", "result": 1},
      {"measurement": "Growth Rate", "setting": "U2OS; replicate number 1", "result": 1}
    ]},
    {"molecule": "O=C1C(=O)N(Cc2ccccc2)c2ccc(S(=O)(=O)N3CCC[C@H]3COc3ccc(C(F)(F)F)cc3)cc21", "values": [
      {"measurement": "Growth Rate", "setting": "HEK-293T; replicate number 1", "result": -0.25},
      {"measurement": "Growth Rate", "setting": "HEK-293T; replicate number 2", "result": -0.13},
      {"measurement": "Growth Rate", "setting": "Fibroblast; replicate number 1", "result": -0.08},
      {"measurement": "Growth Rate", "setting": "Fibroblast; replicate number 2", "result": 0.99},
      {"measurement": "Growth Rate", "setting": "U2OS; replicate number 1", "result": -0.63},
      {"measurement": "Growth Rate", "setting": "U2OS; replicate number 2", "result": -0.25}
    ]},
    {"molecule": "Cl.Cl.O=C(O)Cn1nnc(-c2ccc(CN(CCCCOc3ccc(CN4CCCC4)cc3)CCc3ccccc3)cc2)n1", "values": [
      {"measurement": "Growth Rate", "setting": "HEK-293T; replicate number 1", "result": 0.53},
      {"measurement": "Growth Rate", "setting": "HEK-293T; replicate number 2", "result": 0.89},
      {"measurement": "Growth Rate", "setting": "Fibroblast; replicate number 1", "result": 0.66},
      {"measurement": "Growth Rate", "setting": "Fibroblast; replicate number 2", "result": 1},
      {"measurement": "Growth Rate", "setting": "U2OS; replicate number 1", "result": 1},
      {"measurement": "Growth Rate", "setting": "U2OS; replicate number 2", "result": 0.91}
    ]}
  ]
}
